Measured values from article PMC4350332 (Oncotarget, 2014).

Legend:
[1] = system: PDC activity in PC-3 cells; experiment: Cellular PDC activity assay, PC-3; format: cell-based; details: magnitude greater for VER-246608
Description: (§1) Cellular PDC activity was determined using a commercial assay kit (Abcam) as per the manufacturer's instructions. Briefly, PC-3 and K562 cell suspensions at a density of 1×10^6 and 1.5×10^6, respectively, were transferred to 96 well plates (250 μL per well). Cells were pre-treated with compound or DMSO for 1 h in a CO2incubator at 37°C followed by cell lysis in 250 μL of a 9:1 dilution of assay kit detergent (containing 20 mM NaF and 40 μM of the PDK inhibitor VER-246550) for 10 min on ice. The cellular debris was then pelleted at 1000g for 10 min. A 200 μL aliquot of each lysate was then transferred to the immunocapture microplate. PDC reaction rates were determined from the slope of the reaction curves and expressed as a percentage of the vehicle (DMSO) control values.

PC-3 cells = experiment: Oxygen consumption (oxytherm oxygen electrode); format: cell-based
Description: Oxygen consumption was measured using an ‘oxytherm’ oxygen electrode system (Hansatech). PC-3 cells were trypsinized and re-suspended to a density of 1.7×10^6cells/mL in RPMI-1640 media containing 10% FCS. Compounds or DMSO were then added to 1.5 mL aliquots of this suspension to yield the required final concentration followed by a 1 h incubation period in a CO2incubator at 37°C. The compound/vehicle treated cells were then transferred to the oxygen electrode chamber (pre-equilibrated to 37°C). Oxygen consumption was measured over a 30 minute period and the rate of oxygen consumption determined by plotting oxygen concentration against time and obtaining the slope of the line using the linear fit function within excel.

[2] = system: p(Ser^293)E1α levels in ES-2 cells; experiment: Phospho(Ser293) E1α suppression in ES-2 cells; format: cell-based
Description: Phospho(Ser^293) E1α MSD ELISA assay: All reagents were purchased from Meso Scale Discovery (Maryland, USA) unless otherwise stated. Following compound treatment, cells were treated with lysis buffer (TBS pH 7.4, 1% Tween-20, 1 mM EGTA, 1 mM EDTA, 1 mM NaF, protease and phosphatase inhibitor cocktails (Roche)) on ice and the lysates added to standard bind 96 well MSD plates which were pre-loaded with custom phospho(Ser^293)E1α ‘capture’ antibody (2 μg/ml in TBST containing 3% (w/v) blocker A) (Genescript) and blocked with 3% (w/v) blocker A, followed by a 1 h incubation at RT. The wells were then washed 3X with TBST (0.05% tween 20) followed by the addition of 2 μg/ml E1α ‘detection’ antibody (2 μg/ml) (Abcam) and a further 1 h incubation at RT. The wells were again washed 3X with TBST followed by the addition of 1 μg/ml Goat anti-mouse Sulfotag antibody, and a further TBST wash prior to the addition of 2X read buffer T. The chemiluminescent signal was then measured on a MSD sector imager 2400.

[3] = system: PDC activity in K562 cells; experiment: Cellular PDC activity assay, K562; format: cell-based; details: 20 μM VER-246608 or […] Nov3r
Description: as §1, with “values. […]” for “values.”
transformed and additional cancer cell lines. A, The indicated cell lines were seeded into […]
relevant media containing either 2 g/L D-glucose or D-galactose for 96 h. Cell mass was determined using the sulforhodamine B assay. Results are expressed as the percentage change vs DMSO control values for cells incubated in D-glucose containing media. […]
analysis of pyruvate dehydrogenase (PDH) activity in cell lysates using a commercially available ELISA-based assay kit (Abcam). Results are expressed as a percentage of the PDH reaction rate in DMSO treated cells. […]

PDK-1 = PDK-1 (Homo sapiens, UniProt Q15118); experiment: Isothermal calorimetry (ITC) binding affinity; parameters: PDK-1: residues 30-436; made in house; host or cells: E. coli BL21
PDK-4 = molecular target: T1, PDK-4 (Homo sapiens, UniProt Q16654); experiment: DELFIA-based enzyme functional assay (E1 substrate), PDK-4; format: biochemical; details: data not shown
T1 construct: PDK-4: residues 1-412; made in house; host or cells: E. coli BL21

[4] = system: PC-3, SW-1088, UM-22B and MEF cell lines; experiment: Sulforhodamine B cytotoxicity, cell line set; format: cell-based
Description: Compound cytotoxicity was determined using the Sulforhodamine B assay for cells cultured as a monolayer as described previously (45). For spheroid growth experiments, PC-3 cells were seeded (500 cells/well) into 96 well round bottom plates (Corning Costar 7007) in RPMI-1640 media containing 2.5% (w/v) Matrigel (BD Biosciences). […] Spheroid volumes were determined by obtaining diameter measurements from images taken on a Zeiss Axiovert 200M inverted microscope using the axiovision software.

Chain of PDK-1 (Q15118 30-436): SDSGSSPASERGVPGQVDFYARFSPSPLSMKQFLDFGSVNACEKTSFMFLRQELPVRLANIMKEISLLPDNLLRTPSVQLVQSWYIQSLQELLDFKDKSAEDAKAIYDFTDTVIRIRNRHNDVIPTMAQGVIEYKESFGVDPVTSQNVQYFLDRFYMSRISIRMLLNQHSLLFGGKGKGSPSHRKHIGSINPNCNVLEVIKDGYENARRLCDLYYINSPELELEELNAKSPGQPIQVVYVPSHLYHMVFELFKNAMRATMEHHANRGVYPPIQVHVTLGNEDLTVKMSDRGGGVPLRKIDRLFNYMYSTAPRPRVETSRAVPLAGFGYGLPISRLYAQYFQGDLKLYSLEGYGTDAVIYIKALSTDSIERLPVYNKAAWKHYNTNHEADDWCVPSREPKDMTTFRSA
T1 sequence (Q16654 whole entry, the tested form may be a part): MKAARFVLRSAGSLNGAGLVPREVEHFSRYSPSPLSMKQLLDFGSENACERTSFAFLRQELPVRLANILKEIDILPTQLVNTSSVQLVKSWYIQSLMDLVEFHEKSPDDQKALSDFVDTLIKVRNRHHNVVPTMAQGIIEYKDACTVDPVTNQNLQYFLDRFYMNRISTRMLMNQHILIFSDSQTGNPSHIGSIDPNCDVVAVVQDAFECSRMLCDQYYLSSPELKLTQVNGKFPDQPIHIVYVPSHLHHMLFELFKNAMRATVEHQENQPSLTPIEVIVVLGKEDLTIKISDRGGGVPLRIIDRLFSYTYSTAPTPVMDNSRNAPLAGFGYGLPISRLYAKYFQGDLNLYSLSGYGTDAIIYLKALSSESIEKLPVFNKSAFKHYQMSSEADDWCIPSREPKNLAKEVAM

Kd (PDK-1) | Stimulation of PDK-4 activity (PDK-4) | Structure (SMILES) | Increase in PDC activity [1] | Effect on oxygen consumption rate (PC-3 cells; concentrations ≥ 1μM (3 μM in Fig. 3B)) | Sub-maximal suppression of p(Ser^293)E1α levels [2] | Increase in PDC activity [3] | Increase in the rate of oxygen consumption (PC-3 cells; 20 μM, 1 h pre-treatment) | Compound potency under hypoxic conditions ([4]; 0.1% O2) | Cytotoxicity (reduced cell mass) in standard culture ([4]; Sulforhodamine B assay, standard media)
8 nM | approximately 2 fold | C[C@@H]1CN(C(=O)[C@](C)(O)C(F)(F)F)[C@@H](C)CN1C(=O)c1ccc(C#N)cc1 [Nov3r, reference compound] | an increase in PDC activity | no discernible effect | 80% | an increase in PDC activity | – | – | –
– | – | Cc1cnc(Cl)nc1-c1ccc(N(Cc2ccc(CNC(=O)C(F)F)cc2)C(=O)c2ccc(O)cc2O)cc1 [VER-246608] | an increase in PDC activity | – | – | an increase in PDC activity | 66% | no evidence of augmented compound potency | weakly cytotoxic
